Assay results from US8119844B2, “Alcohol production process” (LanzaTech New Zealand Limited, priority 2008, dated 2012).
Where two headings read alike, the source gives them in different places.

How the values were obtained:
[1] = system: Clostridium pasteurianum; settings: for Acetate Consumption / Acetate Consumption (percent of starting acetate) / Final Acetate / Final Butanol / Final Butyrate / Glycerol Consumption: 30 g/l glycerol, after 3 days of fermentation
Experimental: LM31 media at pH 7.4 was prepared as follows. All ingredients with the exception of Cysteine-HCl were mixed in 400 ml distilled water. This solution was made anaerobic by heating to boiling and allowing it to cool to room temperature under a constant flow of N2 gas. Once cool, the Cysteine-HCl was added and the pH of the solution adjusted to 7.4 before making the volume up to 1000 ml; anaerobicity was maintained throughout the experiments.
Bacteria: Clostridium pasteurianum were obtained from the German Resource Centre for Biological Material (DSMZ). The accession number given to the bacteria is DSMZ 525.
Incubation was performed in 234 ml sealed serum bottles each containing 50 ml of the media LM31. The 184 ml headspace of each serum bottle was first flushed three times with N2 gas, before being evacuated and filed to an overpressure of 5 psig. Each bottle was inoculated with 1 ml of a Clostridium pasteurianum culture. A shaking incubator was used and the reaction temperature was maintained at 37° C.
Media samples were taken at intervals over a 3 day period. Each time the media was sampled care was taken to ensure that no gas was allowed to enter into or escape from the serum bottle.
All samples were used to establish the absorbancy at 600 nm (spectrophotometer) and the level of substrates and products (GC or HPLC). HPLC was routinely used to quantify the level of glycerol, methanol, acetate, and ethanol. When n-butyric acid and butanol were present, GC was used in combination with HPLC to quantify the levels of all substrates and products (glycerol, acids and alcohols).
The aim was to test the effect of initial acetate concentration on glycerol fermentation by Clostridium pasteurianum to produce butanol.

[2] = system: Clostridium pasteurianum; test: Effect of methanol on the fermentation of glycerol to butanol (serum bottle); type: cell-based; settings: for Acetate Consumption / Final Butanol / Final Butyrate / Glycerol Consumption: 30 g/l glycerol, 2 g/l acetate, after 36 hours of fermentation
Text: In this experiment, the effect of methanol on the conversion of commercial glycerol to butanol was studied. […] In addition, acetate and glycerol consumption decreased.

[3] = system: Clostridium pasteurianum; test: Comparison of fermentation of commercial glycerol and glycerol from biodiesel waste for butanol production; type: cell-based; settings: 30 g/l commercial glycerol, 2 g/l acetate, after 36 hours of fermentation
Experimental: Thirty grams biodiesel waste was dissolved in water up to 100 ml and stirred until the solution was homogenous. While stirring, 10% Hydrochloric acid solution was added until pH was below 3.0, so total coagulation of free fatty acid would occur. In order to improve the phase separation, the sample was centrifuged for 1 minute at 4,000 g. At this stage 3 phases could be seen: the top layer appeared oily and contained mostly FAME (Fatty acid methyl ester); the middle phase contained mostly coagulated free fatty acids; and, the bottom phase (aqueous phase) was clear and contained mostly water, glycerol and methanol. The aqueous phase was withdrawn carefully, filtered on a 0.2 μm filter and pH was then raised to pH 7.0 by addition of Sodium hydroxide. At this stage, methanol was evaporated by heating the solution under stirring and vacuum maintained with a water-jet. Finally water can be added in order to dilute the glycerol solution.
The aim of this experiment was to test the glycerol obtained from biodiesel waste, in a fermentation with Clostridium pasteurianum to produce butanol, in the presence of 2 g/l acetate initial concentration. The conversion of commercial glycerol (first row) was compared with glycerol obtained from biodiesel waste containing methanol (second row) or where methanol was evaporated (last row). […] Levels of butanol and biomass were the highest for bacteria growing on glycerol obtained from biodiesel, where methanol was evaporated. Acetate (50%) was also consumed.

CC(=O)O [Acetate, Acetic acid, glacial, 99.8%]
Acetate Consumption ([1]; starting acetate 1.4 g/l): 0.4 g/L | Acetate Consumption (percent of starting acetate) ([1]; starting acetate 1.4 g/l): 28% | Final Acetate ([1]; starting acetate 1.4 g/l): 1.0 g/L | Final Butanol ([1]; starting acetate 1.4 g/l): 3.0 g/L | Final Butyrate ([1]; starting acetate 1.4 g/l): 0.5 g/L | Glycerol Consumption ([1]; starting acetate 1.4 g/l): 12 g/L | Acetate Consumption ([1]; starting acetate 2.2 g/l): 1.0 g/L | Acetate Consumption (percent of starting acetate) ([1]; starting acetate 2.2 g/l): 45% | Final Acetate ([1]; starting acetate 2.2 g/l): 1.2 g/L | Final Butanol ([1]; starting acetate 2.2 g/l): 3.5 g/L | Final Butyrate ([1]; starting acetate 2.2 g/l): 0.7 g/L | Glycerol Consumption ([1]; starting acetate 2.2 g/l): 13 g/L | Acetate Consumption ([1]; starting acetate 3.5 g/l): 1.6 g/L | Acetate Consumption (percent of starting acetate) ([1]; starting acetate 3.5 g/l): 45% | Final Acetate ([1]; starting acetate 3.5 g/l): 1.9 g/L | Final Butanol ([1]; starting acetate 3.5 g/l): 3.1 g/L | Final Butyrate ([1]; starting acetate 3.5 g/l): 1.1 g/L | Glycerol Consumption ([1]; starting acetate 3.5 g/l): 12 g/L | acetate consumed in the course of the reaction ([1]; increasing amounts of acetate added at the start of the fermentation): up to 45%

CO [Methanol]
Acetate Consumption ([2]; starting methanol 5.6 g/l): 0.8 g/L | Final Butanol ([2]; starting methanol 5.6 g/l): 2.4 g/L | Final Butyrate ([2]; starting methanol 5.6 g/l): 0.8 g/L | Glycerol Consumption ([2]; starting methanol 5.6 g/l): 14 g/L | Acetate Consumption ([2]; starting methanol 11.2 g/l): 0.8 g/L | Final Butanol ([2]; starting methanol 11.2 g/l): 2.0 g/L | Final Butyrate ([2]; starting methanol 11.2 g/l): 0.6 g/L | Glycerol Consumption ([2]; starting methanol 11.2 g/l): 13 g/L | Acetate Consumption ([2]; starting methanol 16.3 g/l): 0.6 g/L | Final Butanol ([2]; starting methanol 16.3 g/l): 1.1 g/L | Final Butyrate ([2]; starting methanol 16.3 g/l): 0.6 g/L | Glycerol Consumption ([2]; starting methanol 16.3 g/l): 11 g/L | effect on the bacteria and butanol production ([2]; increasing amounts of methanol, commercial glycerol): increasing inhibitory effect

OCC(O)CO [commercial glycerol, glycerol]
Acetate Consumption [3]: 1.0 g/L | Acetate Consumption (percent) [3]: 50% | Final Butanol [3]: 2.9 g/L | Final Butyrate [3]: 0.7 g/L | Glycerol Consumption [3]: 15 g/L
